{"source": "patent US20240374546A1", "about": "“USES AND METHODS FOR PROMOTING INCREASED MITOCHONDRIAL MASS AND FUNCTION” (Brightseed, Inc., priority 2022, published 2024)", "key": {"[1]": {"assay": "Blood count analysis (Hemavet)", "type": "in vivo, mouse", "conditions": "HFD versus HFD+NCT", "experimental": "Mice were anesthetized and 20 μL of whole blood was collected via retro-orbital bleeding in lithium heparin blood collection tubes and 20 different hematologic parameters were measured using a Hemavet 950 FS blood count analyzer (Drew Scientific Group)."}, "[2]": {"assay": "Oral gavage delivery of NCT to DIO mice", "type": "in vivo, mouse", "experimental": "12-week-old C57BL/6J DIO male mice were purchased from Jackson laboratory (cat #380050) and were fed with high fat diet (Research Diets, cat #D12492 60 kcal % fat). […] 14 week old mice were injected subcutaneously using sterile insulin syringes filled with DMSO or NCT (200 mg/kg of mouse body weight) bid for 2 weeks. For oral gavage, 14-week-old C57BL/6J DIO male mice were fed by oral gavage using a feeding needle attached to a sterile 1 ml syringe filled with 200 μL of methyl cellulose (MC, vehicle control) or 200 μL of NCT (200 mg/kg) dissolved in methyl cellulose twice a day for 2 weeks. […] For analysis all mice were sacrificed after 2 weeks of treatment."}, "Sirt3 mRNA": {"system": "Sirt3 mRNA", "assay": "qPCR mouse liver, Sirtuin3 mRNA", "type": "in vivo", "conditions": "HFD+NCT vs HFD", "experimental": "(§1) Total RNA was isolated from liver tissues and primary human hepatocytes using Trizol (Invitrogen). cDNA was amplified using 3 μg of total RNA using qScript cDNA SuperMix (Quanta BioSciences, Beverly, MA, USA). Quantitative real time PCR (RT-PCR) analysis was performed using SYBR® Select Master Mix (Applied Biosystems) and an ABI 7900HT thermal cycler (Applied Biosystems, Thermo Fisher Scientific). Ct values were normalized to 18s rRNA and are expressed as fold change over samples from mice fed NC or cultured human hepatocytes without NCT."}, "PPARγ mRNA": {"system": "PPARγ mRNA", "assay": "qPCR mouse liver, PPARγ mRNA", "type": "in vivo", "conditions": "HFD+NCT vs HFD; to the level of normal chow", "experimental": "as §1"}, "[3]": {"assay": "Triglyceride analysis in liver, serum and stool", "type": "in vivo, mouse", "conditions": "HFD+NCT vs HFD", "experimental": "The TG level in mouse liver, serum and stool was measured according to manufacturer's instructions using the Triglyceride Calorimetric Assay Kit (Cat #10010303, Cayman Chemicals, USA). Liver and stool TG was normalized with liver and stool weight, respectively. Fold change was calculated by normalizing to values from mice fed NC."}, "cleaved caspase3": {"system": "cleaved caspase3", "assay": "Cleaved caspase3 immunostaining", "type": "in vivo, mouse", "conditions": "mice fed HFD with vs without NCT", "experimental": "Frozen liver sections were permeabilized using 0.3% Triton-X and incubated in antigen retrieval solution (Antigen retrieval citrate, Biogenex) at sub-boiling temperature for 10 min. Subsequently, sections were incubated with blocking buffer containing 5% normal donkey serum (Jackson Immuno Research) followed by incubation overnight at 4° C. with mouse anti-HNF4α monoclonal antibody (1:800, Cat #PP-H1415-00, R&D Systems), rabbit polyclonal anti-VDAC antibody (1:400, cat #PA1-954A, Invitrogen) and cleaved caspase3 antibody (1:500, cat #9664, Cell Signaling). Sections were washed and incubated for 1 hour at room temperature with anti-mouse secondary antibody coupled with Alexa fluor 488 (1:400, Invitrogen) and antirabbit secondary antibody coupled with rhodamine red. Nuclei were visualized by counterstaining with DAPI (40,6-diamidino-2-phenylindole, Sigma Aldrich). Slides were mounted using fluorescence mounting medium and images were obtained at 40× magnification using an Olympus IX71 fluorescence microscope. Fluorescence intensity of HNF4α-stained nuclei and VDAC stained mitochondria was calculated using MetaMorph TL software (version 7.6.5.0, Olympus). Fold change was calculated by normalizing to values from mice fed NC. […]"}, "[4]": {"system": "fatty acid oxidation (FAO)", "assay": "Fatty acid oxidation assay in liver lysate", "type": "in vivo, mouse", "conditions": "HFD+NCT vs HFD", "experimental": "FAO in liver lysate was measured according to manufacturer's instructions using a calorimetric assay kit (Cat #E-141, Biomedical Research Service Centre, State University of New York, Buffalo, NY).\nThe large weight difference between the HFD and HFD+NCT groups in conjunction with decreased subcutaneous and hepatic adiposity was striking. There are only two routes of fat elimination; in the stool by malabsorption, which it was ruled out (FIG. 1E) and by oxidation. Thus, it was hypothesized that NCT was inducing an increase in FAO. Quantification of FAO was done using an assay that measures NADH by the conversion of iodonitrotetrazolium (INT) to INT-Formazan mediated by the NADH-requiring enzyme diaphorase. Performing the assay in the presence and absence of added octanoyl-CoA, which is converted through fatty acid β-oxidation to acetyl-CoA with conversion of NAD+ to NADH, provides specificity for FAO. The level of fatty acid oxidation is determined as the INT-formazan level in the presence of octanoyl CoA minus the level in the absence of octanoyl CoA."}, "SDHA mRNA": {"system": "SDHA mRNA", "assay": "qPCR primary human hepatocytes, SDHA mRNA", "type": "cell-based", "conditions": "NCT 5, 15, 40 μM", "experimental": "Experiments with primary human hepatocytes were performed by CN-Bio (Cambridge, UK). Briefly, primary human hepatocytes (PHHs), human Kupffer cells (HKs) and human stellate cells (HSCs) were seeded onto CN-Bio's PhysioMimix LC12 MPS culture plates at 6×10^5 cells for PHHs and 6×10^4 cells for HKs and HSCs in 1.6 ml of CN-Bio's HEP-lean media with 5% FCS. Throughout the experiment the cells were maintained at a flow rate of 1 μl/s. After 24 hours (Day 1) of seeding, the media was changed to HEP-lean media and the cells were incubated until day 4 to allow the cells to form microtissues. At day 4 post seeding, media was changed to HEP-fat media and treated with DMSO or NCT (5, 15, 40 μM). Media was replaced on days 6 and 8. Cells were harvested on day 10 for RNA extraction and culture media was collected for ELISA analysis.\nas §1"}, "VDAC1": {"system": "VDAC1", "assay": "VDAC-1 immunostaining of liver sections", "type": "in vivo, mouse", "conditions": "HFD+NCT vs HFD", "experimental": "Frozen liver sections were permeabilized using 0.3% Triton-X and incubated in antigen retrieval solution (Antigen retrieval citrate, Biogenex) at sub-boiling temperature for 10 min. Subsequently, sections were incubated with blocking buffer containing 5% normal donkey serum (Jackson Immuno Research) followed by incubation overnight at 4° C. with mouse anti-HNF4α monoclonal antibody (1:800, Cat #PP-H1415-00, R&D Systems), rabbit polyclonal anti-VDAC antibody (1:400, cat #PA1-954A, Invitrogen) and cleaved caspase3 antibody (1:500, cat #9664, Cell Signaling). Sections were washed and incubated for 1 hour at room temperature with anti-mouse secondary antibody coupled with Alexa fluor 488 (1:400, Invitrogen) and antirabbit secondary antibody coupled with rhodamine red. Nuclei were visualized by counterstaining with DAPI (40,6-diamidino-2-phenylindole, Sigma Aldrich). Slides were mounted using fluorescence mounting medium and images were obtained at 40× magnification using an Olympus IX71 fluorescence microscope. Fluorescence intensity of HNF4α-stained nuclei and VDAC stained mitochondria was calculated using MetaMorph TL software (version 7.6.5.0, Olympus). Fold change was calculated by normalizing to values from mice fed NC."}}}
{"smiles": "O=C(/C=C/c1ccc(O)c(O)c1)NCCc1ccc(O)cc1", "note": "[NCT, N-transcaffeoyltyramine]", "values": [{"measurement": "hematological analysis", "setting": "[1]", "result": "no difference"}, {"measurement": "liver color after oral gavage NCT", "setting": "[2]; 200 mg/kg bid, 2 weeks, vs methyl cellulose", "result": "No difference in liver color"}, {"measurement": "outcome of oral gavage delivery", "setting": "[2]; 200 mg/kg in methyl cellulose, 2 doses per day, 2 weeks", "result": "compound precipitation"}, {"measurement": "NCT compound level in serum and stool", "setting": "[2]; following oral gavage 200 mg/kg bid", "result": "present in stool but not serum"}, {"measurement": "Sirt3 mRNA in mouse liver (effect of HFD)", "setting": "Sirt3 mRNA", "result": "almost completely reversed"}, {"measurement": "PPARγ expression in mouse liver", "setting": "PPARγ mRNA", "result": "dramatically reduced"}, {"measurement": "hepatic TG", "setting": "[3]; normalized to liver weight", "result": "lower TG"}, {"measurement": "circulating TG", "setting": "[3]; serum, 10 weeks", "result": "no difference"}, {"measurement": "Caspase 3, marker of apoptosis", "setting": "cleaved caspase3", "result": "no change"}, {"measurement": "FAO activity in the presence of octanoyl CoA", "setting": "[4]", "result": "increase"}, {"measurement": "baseline activity in the absence of octanoyl CoA", "setting": "[4]", "result": "increase"}, {"measurement": "overall FAO activity (+octanoyl CoA minus −octanoyl CoA)", "setting": "[4]", "result": "unchanged"}, {"measurement": "SDHA mRNA in primary human hepatocytes", "setting": "SDHA mRNA", "result": "increased"}, {"measurement": "VDAC1 expression (HFD-induced decrease)", "setting": "VDAC1", "result": "substantial reversal"}]}
